Earlier results in patent US20250381160A1, “Method and Apparatus for Providing Transdermal Delivery of a Carbidopa/Levodopa-Based Lotion for the Treatment of Parkinson's Disease” (Through The Skin LLC, priority 2024, published 2025).

Legend:
[1] = not given; remark: listed apart in the source
[2] = tested on: Parkinson's Disease; settings: carbidopa given with levodopa
[3] = with HA of 150,000-750,000 Daltons, 1-3% of the solution, versus formulations without hyaluronic acid

Structure (SMILES)	solubility in water	half-life of levodopa ([1]; carbidopa and levodopa administered together)	plasma half-life of levodopa ([1]; without carbidopa)	reduction of the amount of levodopa required to produce a given response [2]	increase of the amount that penetrated the skin [3] [times]
NC(Cc1ccc(O)c(O)c1)C(=O)O (single isomer, unassigned; (-)) [Levodopa, (-)-L-α-amino-β-(3,4-dihydroxybenzene) propanoic acid]	slightly soluble in water	about 1.5 hours	about 50 minutes	–	–
CC(Cc1ccc(O)c(O)c1)(NN)C(=O)O (single isomer, unassigned; (-)) [Carbidopa, (-)-L-α-hydrazino-α-methyl-β-(3,4-dihydroxybenzene) propanoic acid monohydrate]	slightly soluble in water	–	–	about 75%	–
O=C(O)Cc1ccccc1Nc1c(Cl)cccc1Cl [diclofenac sodium]	–	–	–	–	3
